From patent US7135466B2 (Kirin Beer Kabushiki Kaisha, priority 1999, dated 2006) come the findings set out here.

For one experiment, the target named is T1, c-kit (Homo sapiens, UniProt P10721).
T1 construct: MO7e (human megakaryocytic leukemia cell line) which had been arrested for 20 hr; endogenous in cells; host or cells: MO7e human megakaryocytic leukemia cell line
T1 sequence (P10721 26-976): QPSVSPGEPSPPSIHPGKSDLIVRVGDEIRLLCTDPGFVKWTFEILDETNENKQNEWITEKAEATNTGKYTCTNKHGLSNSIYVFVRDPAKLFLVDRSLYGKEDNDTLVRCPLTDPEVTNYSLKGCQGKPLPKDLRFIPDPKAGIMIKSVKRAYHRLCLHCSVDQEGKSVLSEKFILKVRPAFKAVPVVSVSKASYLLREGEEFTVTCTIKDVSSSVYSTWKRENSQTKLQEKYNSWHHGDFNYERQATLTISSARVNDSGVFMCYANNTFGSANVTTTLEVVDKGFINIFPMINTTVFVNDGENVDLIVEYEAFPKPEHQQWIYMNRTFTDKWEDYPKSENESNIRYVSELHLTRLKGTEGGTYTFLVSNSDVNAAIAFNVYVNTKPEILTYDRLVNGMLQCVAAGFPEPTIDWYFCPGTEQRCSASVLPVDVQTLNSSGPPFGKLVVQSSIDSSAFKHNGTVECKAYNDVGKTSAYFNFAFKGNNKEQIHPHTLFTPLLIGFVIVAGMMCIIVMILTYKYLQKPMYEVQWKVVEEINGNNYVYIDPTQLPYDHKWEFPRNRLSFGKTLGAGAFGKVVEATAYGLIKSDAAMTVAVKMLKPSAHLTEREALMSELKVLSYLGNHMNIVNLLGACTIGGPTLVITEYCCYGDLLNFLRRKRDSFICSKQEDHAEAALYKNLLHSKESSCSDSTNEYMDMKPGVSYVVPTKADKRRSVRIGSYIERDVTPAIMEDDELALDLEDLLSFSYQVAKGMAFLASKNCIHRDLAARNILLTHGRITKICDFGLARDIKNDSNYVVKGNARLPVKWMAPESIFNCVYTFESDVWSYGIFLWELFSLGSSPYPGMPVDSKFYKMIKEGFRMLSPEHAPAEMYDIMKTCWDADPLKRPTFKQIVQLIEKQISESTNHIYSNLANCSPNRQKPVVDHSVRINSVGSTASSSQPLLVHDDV
Put plainly: Inhibitory activity against c-kit autophosphorylation (MO7e cells, h-SCF). The format is cell-based. The note with it: MO7e cells, h-SCF stimulation; read-out: c-kit IC50. The procedure, abridged: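 MO7e human megakaryocytic leukemia cells, arrested 20 hr, treated with compound 1 hr, then stimulated with 50 ng/ml h-SCF for 5 min and lysed. Lysates captured on immobilized anti-phosphotyrosine antibody, detected with anti-c-kit primary and HRP secondary antibody; absorbance at 450 nm.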
With `COc1cc2nccc(Oc3ccc(NC(=S)NC(=O)CCC4CCCC4)c(F)c3)c2cc1OC` [Example 1027, N-(3-Cyclopentylpropanoyl)-N′-{4-[(6,7-dimethoxy-4-quinolyl)oxy]-2-fluorophenyl}thiourea], the IC50 was found to be 161 nM. Same read-out and setting: as for `COc1cc2nccc(Oc3ccc(NC(=S)NC(=O)c4ccco4)cc3)c2cc1OC` [Example 1033, N-{4-[(6,7-Dimethoxy-4-quinolyl)oxy]phenyl}-N′-(2-furylcarbonyl)thiourea], the figure is 177 nM. Same read-out and setting: as for `COc1cc2nccc(Oc3ccc(NC(=S)NC(=O)c4ccsc4)cc3)c2cc1OC` [Example 1034, N-{4-[(6,7-Dimethoxy-4-quinolyl)oxy]phenyl}-N′-(3-thienylcarbonyl)thiourea], the figure is 378 nM; as for `COc1cc2nccc(Oc3ccc(NC(=S)NC(=O)c4cc(C)oc4C)c(F)c3)c2cc1OC` [Example 1037, N-{4-[(6,7-Dimethoxy-4-quinolyl)oxy]-2-fluorophenyl}-N′-[(2,5-dimethyl-3-furyl)carbonyl]-thiourea], 558 nM; as for `COc1cc2nccc(Oc3ccc(NC(=S)NC(=O)c4sccc4C)c(F)c3)c2cc1OC` [Example 1038, N-{4-[(6,7-Dimethoxy-4-quinolyl)oxy]-2-fluorophenyl}-N′-[(3-methyl-2-thienyl)carbonyl]thiourea], 597 nM.

On to `COc1cc2nccc(Oc3ccc(NC(=S)NC(=O)c4cc(C)oc4C)cc3F)c2cc1OC` [Example 1039, N-{4-[(6,7-Dimethoxy-4-quinolyl)oxy]-3-fluorophenyl}-N′-[(2,5-dimethyl-3-furyl)carbonyl]thiourea], for which the IC50 came to 556 nM. Still for that read-out and setting: as for `COc1cc2nccc(Oc3ccc(NC(=S)NC(=O)N(C)c4ccccc4)cc3Cl)c2cc1OC` [Example 1053, N-{3-Chloro-4-[(6,7-dimethoxy-4-quinolyl)oxy]phenyl}-{[(methylanilino)carbonyl]amino}methanethioamide], the figure is 178 nM. On the same count and under the same terms, to `COc1cc2nccc(Oc3ccc(NC(=S)NC(=O)C4CC4)cc3F)c2cc1OC` [Example 1056, N-Cyclopropylcarbonyl-N′-{4-[(6,7-dimethoxy-4-quinolyl)oxy]-3-fluorophenyl}thiourea] belongs 932 nM. For the compound `COc1cc2nccc(Oc3ccc(NC(=S)NC(=O)C4CC4c4ccccc4)cc3F)c2cc1OC` (centres unmarked) [Example 1057, N-{4-[(6,7-Dimethoxy-4-quinolyl)oxy]-3-fluorophenyl}-N′-[(2-phenylcyclopropyl)carbonyl]thiourea], the IC50 worked out at 447 nM. The same measure, in the same setting: to `COc1cc2nccc(Oc3ccc(NC(=S)NC(=O)C4CC4c4ccccc4)cc3Cl)c2cc1OC` (centres unmarked) [Example 1059, N-{3-Chloro-4-[(6,7-dimethoxy-4-quinolyl)oxy]phenyl}-N′-[(2-phenylcyclopropyl)carbonyl]thiourea] belongs 550 nM; to `COc1cc2nccc(Oc3ccc(NC(=S)NC(=O)C4CCCC4)cc3)c2cc1OC` [Example 1061, N-Cyclopentylcarbonyl-N′-{4-[(6,7-dimethoxy-4-quinolyl)oxy]phenyl}thiourea], 136 nM; to `COc1cc2nccc(Oc3ccc(NC(=S)NC(=O)C4CCCCC4)cc3)c2cc1OC` [Example 1062, N-Cyclohexylcarbonyl-N′-{4-[(6,7-dimethoxy-4-quinolyl)oxy]phenyl}thiourea], 233 nM. Still for that read-out and setting: as for `COc1cc2nccc(Oc3ccc(NC(=S)NC(=O)C4CCCC4)c(F)c3)c2cc1OC` [Example 1063, N-Cyclopentylcarbonyl-N′-{4-[(6,7-dimethoxy-4-quinolyl)oxy]-2-fluorophenyl}thiourea], the figure is 491 nM; as for `COc1cc2nccc(Oc3ccc(NC(=S)NC(=O)C4CCCCC4)c(F)c3)c2cc1OC` [Example 1064, N-Cyclohexylcarbonyl-N′-{4-[(6,7-dimethoxy-4-quinolyl)oxy]-2-fluorophenyl}thiourea], 279 nM.

With `COc1cc2nccc(Oc3ccc(NC(=S)NC(=O)CCCCl)c(F)c3)c2cc1OC` [Example 1066, N-(4-Chlorobutanoyl)-N′-{4-[(6,7-dimethoxy-4-quinolyl)oxy]-2-fluorophenyl}thiourea], the IC50 came out at 279 nM.

For `COc1cc2nccc(Oc3ccc(NC(=S)NC(=O)CCSC)c(F)c3)c2cc1OC` [Example 1067, N-{4-[(6,7-Dimethoxy-4-quinolyl)oxy]-2-fluorophenyl}-N′-[3-(methylsulfanyl)propanoyl]thiourea], the IC50 worked out at 449 nM. On to `COc1cc2nccc(Oc3ccc(NC(=S)NC(=O)CCCCl)cc3F)c2cc1OC` [Example 1068, N-(4-Chlorobutanoyl)-N′-{4-[(6,7-dimethoxy-4-quinolyl)oxy]-3-fluorophenyl}thiourea], for which the IC50 was determined as 124 nM. With `COc1cc2nccc(Oc3ccc(NC(=S)NC(=O)CCSC)cc3F)c2cc1OC` [Example 1069, N-{4-[(6,7-Dimethoxy-4-quinolyl)oxy]-3-fluorophenyl}-N′-[3-(methylsulfanyl)propanoyl]thiourea], the IC50 came to 189 nM. On the same count and under the same terms, as for `COc1ccc(C(=O)NC(=S)Nc2ccc(Oc3ccnc4cc(OC)c(OC)cc34)c(F)c2)cc1OC` [Example 1070, N-(3,4-Dimethoxybenzoyl)-N′-{4-[(6,7-dimethoxy-4-quinolyl)oxy]-3-fluorophenyl}thiourea], the figure is 391 nM. In the case of `COc1ccc(C(=O)NC(=S)Nc2ccc(Oc3ccnc4cc(OC)c(OC)cc34)c(C)c2C)cc1` [Example 1087, N-{4-[(6,7-Dimethoxy-4-quinolyl)oxy]-2,3-dimethylphenyl}-N′-(4-methoxybenzoyl)thiourea], the IC50 stood at 495 nM.

Still in this experiment, the particulars now being: Mo7e, figure in parentheses in −( ); at 1000 nM.
In the case of `COc1cc2nccc(Oc3ccc(NC(=S)NC(=O)c4ccco4)c(F)c3)c2cc1OC` [Example 1035, N-{4-[(6,7-Dimethoxy-4-quinolyl)oxy]-2-fluorophenyl}-N′-(2-furylcarbonyl)thiourea], the inhibition at 1 µM turned out to be 17%. The same measure, in the same setting: to `COc1cc2nccc(Oc3ccc(NC(=S)NC(=O)c4ccsc4)c(F)c3)c2cc1OC` [Example 1036, N-{4-[(6,7-Dimethoxy-4-quinolyl)oxy]-2-fluorophenyl}-N′-(3-thienylcarbonyl)thiourea] belongs 29%; to `COc1cc2nccc(Oc3ccc(NC(=S)NC(=O)N4c5ccccc5CCc5ccccc54)cc3)c2cc1OC` [Example 1047, N-[10,11-Dihydro-5H-dibenzo(b,f)azepin-5-ylcarbonyl]-N′-{4-[(6,7-dimethoxy-4-quinolyl)oxy]phenyl}thiourea], 7%. The same measure, in the same setting: to `CCCCCCCCCCCCCC(=O)NC(=S)Nc1ccc(Oc2ccnc3cc(OC)c(OC)cc23)cc1F` [Example 1076, N-{4-[(6,7-Dimethoxy-4-quinolyl)oxy]-2-fluorophenyl}-N′-tetradecanoylthiourea] belongs 7%; to `COc1cc2nccc(Oc3ccc(NC(=S)NC(=O)c4ccccc4Cl)c(C)c3C)c2cc1OC` [Example 1078, N-(2-Chlorobenzoyl)-N′-{4-[(6,7-dimethoxy-4-quinolyl)oxy]-2,3-dimethylphenyl}thiourea], 32%. Same read-out and setting: to `COc1cc2nccc(Oc3ccc(NC(=S)NC(=O)c4cccc(C)c4)c(C)c3C)c2cc1OC` [Example 1079, N-{4-[(6,7-Dimethoxy-4-quinolyl)oxy]-2,3-dimethylphenyl}-N′-(3-methylbenzoyl)thiourea] belongs 25%; to `COc1cc2nccc(Oc3ccc(NC(=S)NC(=O)c4ccc(C)cc4)c(C)c3C)c2cc1OC` [Example 1080, N-{4-[(6,7-Dimethoxy-4-quinolyl)oxy]-2,3-dimethylphenyl}-N′-(4-methylbenzoyl)thiourea], 0%; to `COc1cc2nccc(Oc3ccc(NC(=S)NC(=O)c4ccc(Cl)cc4)c(C)c3C)c2cc1OC` [Example 1082, N-(4-Chlorobenzoyl)-N′-{4-[(6,7dimethoxy-4-quinolyl)oxy]-2,3-dimethylphenyl}thiourea], 15%. As to `COc1cc2nccc(Oc3ccc(NC(=S)NC(=O)c4cccc(Cl)c4)c(C)c3C)c2cc1OC` [Example 1083, N-(3-Chlorobenzoyl)-N′-{4-[(6,7-dimethoxy-4-quinolyl)oxy]-2,3-dimethylphenyl}thiourea], the inhibition at 1 µM is 30%. Consider `COc1cc2nccc(Oc3ccc(NC(=S)NC(=O)c4ccccc4)c(C)c3C)c2cc1OC` [Example 1084, N-Benzoyl-N′-{4-[(6,7-dimethoxy-4-quinolyl)oxy]-2,3-dimethylphenyl}thiourea], for which the inhibition at 1 µM came out at 30%.

As for `COc1cc2nccc(Oc3ccc(NC(=S)NC(=O)c4ccccc4C)c(C)c3C)c2cc1OC` [Example 1085, N-{4-[(6,7-Dimethoxy-4-quinolyl)oxy]-2,3-dimethylphenyl}-N′-(2-methylbenzoyl)thiourea], the inhibition at 1 µM is 25%. The same measure, in the same setting: as for `COc1cc2nccc(Oc3ccc(NC(=S)NC(=O)c4ccc(F)cc4F)c(C)c3C)c2cc1OC` [Example 1088, N-(2,4-Difluorobenzoyl)-N′-{4-[(6,7-dimethoxy-4-quinolyl)oxy]-2,3-dimethylphenyl}thiourea], the figure is 23%.

Take `COc1cc2nccc(Oc3ccc(NC(=S)NC(=O)c4ccc(Cl)cc4)c(C)c3)c2cc1OC` [Example 1089, N-(4-Chlorobenzoyl)-N′-{4-[(6,7-dimethoxy-4-quinolyl)oxy]-2-methylphenyl}thiourea]: the inhibition at 1 µM is 28%. Same read-out and setting: to `COc1cc2nccc(Oc3ccc(NC(=S)NC(=O)c4ccccc4C)c(C)c3)c2cc1OC` [Example 1090, N-{4-[(6,7-Dimethoxy-4-quinolyl)oxy]-2-methylphenyl}-N′-(2-methylbenzoyl)thiourea] belongs 30%; to `COc1cc2nccc(Oc3ccc(NC(=S)NC(=O)c4cccc(F)c4)c(C)c3)c2cc1OC` [Example 1091, N-{4-[(6,7-Dimethoxy-4-quinolyl)oxy]-2-methylphenyl}-N′-(3-fluorobenzoyl)thiourea], 39%.
